≈ marks a conversion by molar mass, not a printed value. Calls of active or inactive are those of the source. No cut-off for these calls is given here.
Tests used:
[1] = tested on: Mycobacterium tuberculosis; test: Antitubercular activity against Mycobacterium tuberculosis H37Rv assessed as growth inhibition after 30 days by agar microdilution method; assay type: functional
[2] = Inhibition of nick joining activity of Mycobacterium tuberculosis full length NAD+-dependent DNA ligase using [gamma32P]ATP-labeled nicked 40 bp DNA as substrate
[3] = molecular target: T1, DNA ligase (Enterobacteria phage T4, UniProt P00970); test: Inhibition of nick joining activity of ATP-dependent bacteriophage T4 DNA ligase using [gamma32P]ATP-labeled nicked 40 bp DNA as substrate; set-up: species or system Tequatrovirus T4
T1 sequence (P00970 whole entry): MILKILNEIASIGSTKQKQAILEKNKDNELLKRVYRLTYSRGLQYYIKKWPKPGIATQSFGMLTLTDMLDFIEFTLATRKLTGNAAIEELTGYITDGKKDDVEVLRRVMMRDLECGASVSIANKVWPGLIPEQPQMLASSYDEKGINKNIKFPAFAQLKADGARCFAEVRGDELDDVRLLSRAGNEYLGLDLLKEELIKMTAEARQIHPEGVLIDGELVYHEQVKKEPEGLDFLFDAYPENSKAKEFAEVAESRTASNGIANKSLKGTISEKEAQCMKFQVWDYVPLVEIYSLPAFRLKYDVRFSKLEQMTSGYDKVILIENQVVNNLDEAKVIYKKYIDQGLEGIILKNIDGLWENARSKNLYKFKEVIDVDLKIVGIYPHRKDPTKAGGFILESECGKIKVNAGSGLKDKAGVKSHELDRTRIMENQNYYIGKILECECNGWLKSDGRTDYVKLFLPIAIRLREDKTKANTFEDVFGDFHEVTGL

[4] = molecular target: DNA ligase 1 (Homo sapiens, UniProt P18858); test: Inhibition of nick joining activity of human DNA ligase 1 using [gamma32P]ATP-labeled nicked 40 bp DNA as substrate
[5] = tested on: Calf thymus DNA; test: Binding affinity to calf thymus DNA up to 250 uM by ethidium bromide displacement assay; assay type: nucleic-acid assay; settings: Bos taurus
[6] = tested on: Salmonella typhimurium; test: In vivo antibacterial activity against DNA ligase deficient Salmonella typhimurium variant TT15151 expressing […] T4 DNA ligase gene assessed as growth inhibition after 20 hrs by microdilution assay; assay type: functional, Salmonella enterica subsp. enterica serovar Typhimurium; settings: Salmonella enterica, TT15151, 20 h
[7] = Binding affinity to plasmid DNA (unknown origin) by gel electrophoresis mobility shift assay
[8] = tested on: Escherichia coli; test: In vivo antibacterial activity against Escherichia coli GR501 harboring lig251 temperature-sensitive mutant gene transformed with control plasmid pTrc99A assessed as growth inhibition after 20 hrs by microdilution assay; assay type: functional; settings: GR501, 20 h
[9] = Ratio of IC50 for ATP-dependent bacteriophage T4 DNA ligase to IC50 for Mycobacterium tuberculosis full length NAD+-dependent DNA ligase
[10] = Ratio of IC50 for human DNA ligase 1 to IC50 for Mycobacterium tuberculosis full length NAD+-dependent DNA ligase
[11] = tested on: Escherichia coli; test: In vivo antibacterial activity against Escherichia coli GR501 harboring temperature-sensitive lig251 mutant gene transformed with plasmid encoding T4 DNA ligase assessed as growth inhibition after 20 hrs by microdilution assay; assay type: functional; settings: GR501, 20 h
[12] = tested on: Salmonella typhimurium; test: In vivo antibacterial activity against wild type Salmonella typhimurium LT2 assessed as growth inhibition after 20 hrs by microdilution assay; assay type: functional, Salmonella enterica subsp. enterica serovar Typhimurium; settings: Salmonella enterica, LT2, 20 h
[13] = Competitive inhibition of nick joining activity of Mycobacterium tuberculosis full length NAD+-dependent DNA ligase using [gamma32P]ATP-labeled nicked 40 bp DNA as substrate by double reciprocal plot assay in presence of rising concentrations of NAD+

Chain of DNA ligase 1 (P18858 whole entry): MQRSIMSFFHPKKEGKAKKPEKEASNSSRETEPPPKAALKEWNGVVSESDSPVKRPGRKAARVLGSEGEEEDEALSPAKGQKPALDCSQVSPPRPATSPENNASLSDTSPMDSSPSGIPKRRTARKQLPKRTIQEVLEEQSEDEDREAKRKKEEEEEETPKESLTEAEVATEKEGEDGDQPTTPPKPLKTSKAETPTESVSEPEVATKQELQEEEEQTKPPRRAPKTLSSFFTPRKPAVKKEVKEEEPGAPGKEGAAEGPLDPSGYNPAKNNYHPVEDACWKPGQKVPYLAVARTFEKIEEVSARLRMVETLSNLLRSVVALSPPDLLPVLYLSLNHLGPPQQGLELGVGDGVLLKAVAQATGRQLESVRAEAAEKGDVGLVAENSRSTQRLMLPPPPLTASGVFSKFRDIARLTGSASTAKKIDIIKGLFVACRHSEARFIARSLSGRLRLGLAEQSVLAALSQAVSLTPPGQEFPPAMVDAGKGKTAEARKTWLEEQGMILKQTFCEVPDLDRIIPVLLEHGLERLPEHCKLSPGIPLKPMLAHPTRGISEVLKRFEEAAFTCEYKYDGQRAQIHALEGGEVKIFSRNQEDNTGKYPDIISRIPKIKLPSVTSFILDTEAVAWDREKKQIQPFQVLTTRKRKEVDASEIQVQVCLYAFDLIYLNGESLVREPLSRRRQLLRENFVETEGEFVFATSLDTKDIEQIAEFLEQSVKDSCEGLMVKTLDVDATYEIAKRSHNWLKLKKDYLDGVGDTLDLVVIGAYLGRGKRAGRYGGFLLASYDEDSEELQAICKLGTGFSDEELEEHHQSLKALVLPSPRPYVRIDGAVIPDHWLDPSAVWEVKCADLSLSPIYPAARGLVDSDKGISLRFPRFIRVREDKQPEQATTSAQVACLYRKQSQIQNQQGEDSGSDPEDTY

Q: For `COc1ccc(C2CC23CCC2(CC2c2ccc(OC)cc2)C3=O)cc1` (centres undefined), which MIC90 [1] is on record?
A: > 30 µM

Q: Which IC50 [2] does the source give for `O=C1C2(CCCC13CC3c1ccc(Cl)cc1)CC2c1ccc(Cl)cc1` (centres undefined) here?
A: 12 µM

Q: What about the IC50 [3] of the same compound?
A: 20.2 µM

Q: What about the MIC90 [1] of the same compound?
A: 16.8 µM (≈ 6.24 µg/mL)

Q: What about the IC50 [4] of the same compound?
A: 18.5 µM

Q: Which MIC90 [1] does the source give for `NNC(=O)c1ccncc1` [ISONIAZID] here?
A: 4.7 µM (≈ 0.645 µg/mL)

Q: Which MIC90 [1] does the source give for `O=C1C2(CCC13CC3c1ccc(Br)cc1)CC2c1ccc(Br)cc1` (centres undefined) here?
A: 28 µM (≈ 12.5 µg/mL)

Q: Which MIC90 [1] does the source give for `COc1cc(C2CC23CCCCC2(CC2c2cc(OC)c(OC)c(OC)c2)C3=O)cc(OC)c1OC` (centres undefined) here?
A: 25.2 µM (≈ 12.5 µg/mL)

Q: Which MIC90 [1] does the source give for `COc1ccc(C2CC23CCCCC2(CC2c2ccc(OC)c(OC)c2)C3=O)cc1OC` (centres undefined) here?
A: 28.6 µM (≈ 12.5 µg/mL)

Q: Which results are given for `O=C1C2(CCCC13CC3c1ccc(F)cc1)CC2c1ccc(F)cc1` (centres undefined)?
A: IC50 [2]: 8.6 µM; IC50 [3]: 33.4 µM; Activity [5]: inactive; MIC [6]: 148 µM (≈ 50 µg/mL); MIC90 [1]: > 30 µM; Activity [7]: inactive; MIC [8]: 5.9 µM (≈ 2 µg/mL); IC50 [4]: 45.4 µM; Ratio IC50 [9]: 4; Ratio IC50 [10]: 5; MIC [11]: 178 µM (≈ 60.1 µg/mL); MIC [12]: 29.5 µM (≈ 9.98 µg/mL)

Q: With `O=C(C1CC1c1ccc(OCc2ccccc2)cc1)C1CC1c1ccc(OCc2ccccc2)cc1` (centres undefined) as the compound, how does the MIC90 [1] read?
A: 26.3 µM (≈ 12.5 µg/mL)

Q: For `COc1ccc(C2CC23CCCC2(CC2c2ccc(OC)c(OC)c2)C3=O)cc1OC` (centres undefined), which MIC90 [1] is on record?
A: 29.6 µM (≈ 12.5 µg/mL)

Q: For `COc1ccc(C2CC23CCCCC2(CC2c2ccc(OC)cc2)C3=O)cc1` (centres undefined), which MIC90 [1] is on record?
A: > 30 µM

Q: For `CC[C@@H](CO)NCCN[C@@H](CC)CO` [ETHAMBUTOL], which MIC90 [1] is on record?
A: 15.9 µM (≈ 3.25 µg/mL)

Q: For `O=C1C2(CCC13CC3c1ccc(F)cc1)CC2c1ccc(F)cc1` (centres undefined), which MIC90 [1] is on record?
A: > 30 µM

Q: Which MIC90 [1] does the source give for `COc1ccc(C2CC23CCC2(CC2c2ccc(OC)c(OC)c2)C3=O)cc1OC` (centres undefined) here?
A: > 30 µM

Q: Which Ki [13] does the source give for `O=C1C2(CCCC13CC3c1ccc(Br)cc1)CC2c1ccc(Br)cc1` (centres undefined) here?
A: 5.9 µM

Q: And the IC50 [2]?
A: 7.3 µM

Q: What about the IC50 [3] of the same compound?
A: 70.2 µM

Q: And the Activity [5]?
A: inactive

Q: And the MIC [6]?
A: 76 µM (≈ 35 µg/mL)

Q: What about the MIC90 [1] of the same compound?
A: 13.5 µM (≈ 6.21 µg/mL)

Q: What about the Activity [7] of the same compound?
A: inactive

Q: And the MIC [8]?
A: 8.6 µM (≈ 3.96 µg/mL)

Q: And the IC50 [4]?
A: 58.6 µM

Q: And the Ratio IC50 [9]?
A: 8

Q: What about the Ratio IC50 [10] of the same compound?
A: 8

Q: What about the MIC [11] of the same compound?
A: 65.2 µM (≈ 30 µg/mL)

Q: What about the MIC [12] of the same compound?
A: 43.4 µM (≈ 20 µg/mL)

Q: For `O=C1C2(CCCCC13CC3c1ccc(Cl)cc1)CC2c1ccc(Cl)cc1` (centres undefined), which MIC90 [1] is on record?
A: > 30 µM

Q: With `O=C1C2(CCC13CC3c1ccc(OCc3ccccc3)cc1)CC2c1ccc(OCc2ccccc2)cc1` (centres undefined) as the compound, how does the MIC90 [1] read?
A: 25 µM (≈ 12.5 µg/mL)

Q: For `O=C1C2(CCCC13CC3c1ccc(OCc3ccccc3)cc1)CC2c1ccc(OCc2ccccc2)cc1` (centres undefined), which MIC90 [1] is on record?
A: 24.3 µM (≈ 12.5 µg/mL)

Q: Which MIC90 [1] does the source give for `COc1ccc(C2CC23CCCC2(CC2c2ccc(OC)cc2)C3=O)cc1` (centres undefined) here?
A: > 30 µM

Q: For `COc1cc(C2CC23CCCC2(CC2c2cc(OC)c(OC)c(OC)c2)C3=O)cc(OC)c1OC` (centres undefined), which MIC90 [1] is on record?
A: 25.9 µM (≈ 12.5 µg/mL)

Q: With `O=C1C2(CCCC13CC3c1ccccc1)CC2c1ccccc1` (centres undefined) as the compound, how does the IC50 [2] read?
A: 180 µM

Q: And the IC50 [3]?
A: 210 µM

Q: And the MIC90 [1]?
A: > 30 µM

Q: What about the IC50 [4] of the same compound?
A: 130 µM

Reference: ChEMBL document CHEMBL3217431, “Synthesis, in silico screening and bioevaluation of dispiro-cycloalkanones as antitubercular and mycobacterial NAD+-dependent DNA ligase inhibitors” (Medchemcomm, 2011)
